Test results as given in patent publication US12151021B2, “Implantable nanochannel delivery devices” (THE METHODIST HOSPITAL SYSTEM, priority 2015, dated 2024).
Counter-ions that a name gives are not always drawn. Like-named read-outs stand apart in the source and are kept apart here.

How the values were obtained:
[1] = from BioNumbers (Milo et al.), cited from earlier work
[2] = Doxorubicin release in vitro from nanochannel capsules (UV-Vis at 479 nm); assay type: physicochemical; conditions: in 4 days; capsules with 20 nm nanochannels, loading solution 0.58 mg/ml, 23 °C, n=5
Procedure: Doxorubicin loaded nanochannel capsules (n=5) were immersed in 400 μl of Millipore water in microvolume spectroscopy cuvettes sealed with tight-fitting lids. Absorbance measures were taken every 10 min for 9 days at 479 nm by a custom-built robotic carousel (Quantum Northwest, Inc.) connected to a UV-Vis spectrophotometer (Cary 50, Agilent Technologies, Inc.). The 479 nm wavelength was selected as optimal for doxorubicin with this system by prior full spectrum analysis. The cuvettes were maintained at 23±0.3° C. for the duration of the experiment. Data were normalized with respect to a Millipore water blank, and the cumulative release of the agents was obtained through comparison to a standard curve.
The nanochannel capsules were loaded with Doxorubicin and placed in isotonic conditions in vitro to characterize their release kinetics. The nanochannel capsules were immersed in PBS within microvolume cuvettes, which were sealed with tight-fitting lids. Release into the sink solution was measured via absorbance measurements at 479 nm by a robotic 48-cell carousel (Quantum Northwest, Inc.) linked to a UV-Vis Spectrophotometer (Cary 50, Agilent Technologies, Inc.). Overall drug release was evaluated via comparison of measured absorbances to standard curves following normalization with respect to initial conditions (t=0).

[3] = Magnevist release in vitro from PEEK nanochannel capsules (MR T1 mapping); assay type: physicochemical; conditions: at plateau beginning by Day 3; 47 mg/ml loading, PBS, 37 °C, n=4; approximation based on loading concentration
Procedure: The drug eluting fiducial markers were loaded with a number of different molecules to examine release kinetics into simulated physiological solution in vitro. In a series of experiments, the implants were loaded with ˜2.5 μL of OX86, FGK45, or Magnevist, placed in a 70 μL cuvette, and immersed in PBS. The cuvettes were sealed with tight-fitting lids and kept in an incubator at 37° C. The PBS solution was sampled and replaced daily. The OX86 and FGK45 release was quantified by micro-BCA assay (Sigma-Aldrich). The Magnevist was quantified through MR scanning. (7 T magnet, cut-down 96-well plate in a wrist coil). An additional experiment for quantifying IgG release was conducted similarly, but at room temperature and quantified via UV-Vis spectroscopy at 280 nm sampled every 10 minutes.
PEEK nanochannel capsules loaded with Magnevist (n=4) were immersed in 500 μl of PBS in microvolume cuvettes sealed with tight-fitting lids. These microvolume cuvettes were then placed in a 37° C. incubator. The 500 μl of sink solution were sampled and replaced daily for 7 days. The sink samples were stored at 4° C. Magnevist concentration within the samples was quantified through MR imaging of the samples within a custom-built 49 well plate (7×7) with 300 μl well volumes. […]

[4] = parameters: species or system C57B16 mice; conditions: mouse, in vivo
Procedure: All animal procedures described herein followed IACUC protocols approved by their requisite institutions. C57B16 mice were implanted with 10^6 melanoma cells (B16F10) in the upper thigh (n=5). Once tumors reached 12 mm in its longer axis, sterile nanochannel implants loaded with 470 mg/ml of Magnevist were percutaneously implanted into the tumors with a 15 G, percutaneous trocar at a 90°angle from the axial axis of the tumor. Briefly, rodents were anesthetized with 3% isofluorane and immobilized within a sterile field. The percutaneous implantation site was cleaned with chlorhexidine and 70% ethanol and all nearby hair was shaved. The trocar was inserted to the target depth of approximately 5 mm. The nanochannel capsule was extruded through manual pressure with the obturator and the trocar was removed. A single drop of bupivicaine was added to the implantation site. The implantation site was closed with suture to ensure implant immobility and restrict animal agitation of the site. The mice had secondary heating maintained throughout the procedure and until they recovered from anesthesia.
For the in vivo MR imaging, T1- and T2-weighted images were acquired axially with respect to the laboratory frame of reference on a 7 T Bruker BioSpec Scanner (Bruker Biospin, Billerica, MA, USA). […]

Question: Which hydrodynamic radius [1] does the source give for Immunoglobulin G here?
Answer: 6.4 nm

Question: And the hydrodynamic radius ([1]; listed as IgG isotype immunoproteins)?
Answer: approximately 6.4 nm

Question: With `COc1cccc2c1C(=O)c1c(O)c3c(c(O)c1C2=O)C[C@@](O)(C(=O)CO)C[C@@H]3O[C@H]1C[C@H](N)[C@H](O)[C@H](C)O1` [Doxorubicin, Doxorubicin hydrochloride salt] as the compound, how does the “release depleted fraction of the reservoir volume” value [2] read?
Answer: around 80%

Question: What does the source list for `CNC[C@H](O)[C@@H](O)[C@H](O)[C@H](O)CO.CNC[C@H](O)[C@@H](O)[C@H](O)[C@H](O)CO.O=C([O-])CN(CCN(CC(=O)[O-])CC(=O)O)CCN(CC(=O)[O-])CC(=O)O.[Gd+3]` [Magnevist, gadopentetate dimeglumine]?
Answer: loaded Magnevist released [3]: 85%; distance from implant's exterior at which observable enhancement begins [4]: 2-5 mm; thickness of band of observable enhancement [4]: approximately 1 mm
